Measured values published in PubChem BioAssay AID651630 (Sanford-Burnham Center for Chemical Genomics, 2012).
Activity calls are given as the source filed them.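 How the source made its calls: active means lipid-stain IC50 at or below a set limit, with nuclear-stain toxicity IC50 at least five times higher; inactive means the rest.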

Assays:
[1] = system: DAPI; test: TAG lipid buildup inhibition with viability readout – cell-based, panel, Nile Red and DAPI fluorescence, H9c2, dose response (AID 651630); conditions: H9c2 cells, DAPI nuclear fluorescence (cytotoxicity counter-readout), oleic acid;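 further: cells exposed to compound overnight before fixation and staining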
[2] = system: TAG; test: as above; conditions: H9c2 cells, Nile Red TAG fluorescence, oleic acid

| SMILES | IC50 cytotoxicity (DAPI nuclear signal decrease) ([1]; mean of runs) | IC50 cytotoxicity (DAPI nuclear signal decrease) ([1]; run 1) [µM] | IC50 cytotoxicity (DAPI nuclear signal decrease) ([1]; run 2) [µM] | IC50 ([2]; mean of runs) | IC50 ([2]; run 1) [µM] | IC50 ([2]; run 2) [µM] |
| --- | --- | --- | --- | --- | --- | --- |
| COc1ccc(-c2nc(NC(=O)C3CCN(c4nc5ccccc5o4)CC3)sc2C)cc1 | > 25 µM (inactive) | > 25 | > 25 | 13 µM | 15.6 | 10.4 |
| C=CCn1c(N)c(C(=O)Nc2ccccc2)c2nc3ccccc3nc21 | > 25 µM (inactive) | > 25 | > 25 | 6.11 µM | 6.18 | 6.04 |
| CCOC(=O)Nc1ccc2c(c1)C(=NNC(=S)NC)c1ccccc1-2 |  | > 25 | 9.75 | > 25 µM (inactive) | > 25 | > 25 |
| CC(C)c1ccc(Nc2ncc3c(n2)CCN(C(=O)Nc2ccc(F)c(Cl)c2)C3)cc1 |  | > 25 | > 25 | 4.65 µM | 2.95 | 6.36 |
| CN1N=C(N)c2cn(C3OC(COP(=O)(O)O)C(O)C3O)c3ncnc1c23 (stereo not drawn) | 7.78 µM (inactive) | 6.76 | 8.79 | 12.2 µM | 11.1 | 13.4 |
| CN(C)CCCn1c(=O)n(CCc2ccccc2)c(=O)c2c3c(sc21)CCCCC3 |  | > 25 | 16.2 | > 25 µM (inactive) | > 25 | > 25 |
| Nc1c(C(=O)Nc2ccccc2)c2nc3ccccc3nc2n1-c1ccc(O)cc1 |  | > 25 | > 25 | 2.99 µM | 2.11 | 3.88 |
| CCOc1ccc(CCNC(=O)CN2CCN(Cc3ccccc3C)C2=O)cc1OCC |  | > 25 | > 25 | 2.19 µM | 1.85 | 2.54 |
| CC(=O)c1ccc(-c2cnc3c(NC=O)cc(-c4ccc(C(=O)NC5CC5)cc4)cn23)cc1 | > 25 µM (inactive) | > 25 | > 25 | > 25 µM (inactive) | > 25 | > 25 |
| O=C1N=C(N2CCOCC2)S/C1=C/c1ccc(-c2ccc(F)cc2)o1 | > 25 µM (inactive) | > 25 | > 25 | 19.7 µM (inactive) | 18.6 | 20.7 |
| Nc1ccc(C#Cc2c(-c3ccsc3)oc3ccc(N4CCOCC4)cc23)cc1 | > 25 µM (inactive) | > 25 | > 25 | 11.4 µM | 10.8 | 11.9 |
| COc1cc(CC(=O)OCC(=O)c2ccc3c(c2)OCCO3)cc(OC)c1OC |  | 2.3 | > 25 |  | 17.1 | > 25 |
| COc1ccc(C2c3cc4c(cc3OC(N3CCOCC3)C2C)OCO4)c(OC)c1 (stereo not drawn) | > 25 µM (inactive) | > 25 | > 25 | 10.1 µM | 6.4 | 13.8 |
| COC(=O)c1c(NC(NC(=O)C(C)(C)C)C(Cl)(Cl)Cl)sc2c1CCC2 (stereo not drawn) | > 25 µM (inactive) | > 25 | > 25 | 13.3 µM | 13.1 | 13.5 |
| CCC(C)(C)NC(=O)C(c1cccn1C)N(Cc1ccc(OC)cc1)C(=O)Cn1nnc2ccccc21 (stereo not drawn) | > 25 µM (inactive) | > 25 | > 25 | > 25 µM (inactive) | > 25 | > 25 |
